From patent US11806393B2, “Flavivirus peptide sequences, epitopes, and methods and uses thereof” (priority 2017, dated 2023)
Ends that are not written are not given here.

Columns and labels:
[1] = system: splenocytes pulsed with ZIKV-derived peptides (target cells); format: in vivo, mouse; conditions: LysMCre+IFNARfl/fl mice infected with MR766 or FSS13025, day 7; targets pulsed with the three peptides; 12 h
Experimental: LysMCre^+IFNAR^fl/fl and WT mice were infected with 10^4 FFU of MR766 or FSS13025. Seven days post-infection, splenocytes were harvested from naïve donor mice, followed by stimulation with a pool of H-2b-restricted ZIKV-peptides (PrM169-177(SEQ ID NO: 19), E297-305 (SEQ ID NO: 25), N552783-2792 (SEQ ID NO: 20)) referred to as “Target Cells” or with DMSO for 3 h at 37° C. The cells were washed and labeled with CSFE (Invitrogen) in PBS/0.1% BSA for 10 min at 37° C. Target cells were labeled with 1 μM CSFE (High) or 100 nM CSFE (Low) for unstimulated cells. After washing, 10^7 of labeled cells (5×10^6 of each population) were injected intravenously into MOCK and infected recipients. Splenocytes from recipients were harvested 4 (Wild type) or 12 h later (LysMCre^+IFNAR^fl/fl) and analyzed by flow cytometry. The percentage of killing is calculated as followed: 100−(% ZIKV-peptide stimulated in infected mice/% DMSO-stimulated in infected mice)/(% ZIKV-peptide stimulated in naïve mice/% DMSO-stimulated in naïve mice)×100).
The following results are with respect to FIG. 7A to FIG. 7E, where WT C57BL/6 mice treated with type I IFN receptor-blocking antibody on day 1 prior to infection were inoculated with 10^4 FFU of ZIKV strain MR766 (n=3) or FSS (n=3), or injected with 10% FBS/PBS (MOCK, n=2). […] Four independent experiments for MR766 (n=8 mice per experiment) and two independent experiments for FSS13025 (n=8 mice per experiment) were performed in triplicate for each peptide. The data are expressed as the mean of spot forming cells (SFC) per 10^6 CD8^+ T cells. One-way ANOVA was used to compare the mean of each peptide with the control (DMSO). […] Pooled data from two independent experiments are shown. The dotted line corresponds to the average value obtained by MOCK after stimulation (0.43% of IFNγ^+CD8^+ T cells). Splenocytes were harvested on day 7 post-infection, followed by stimulation with 1 μg of IFNγ-ELISPOT-positive ZIKV-derived peptides in presence of Brefeldin A (BFA) and CD107a for 4 hours, and the production of IFNγ and TNFα was assessed via ICS. […]

CD8+ T cells [2] = test: Intracellular cytokine staining (ICS), WT C57BL/6 mice treated with IFNAR-blocking antibody; format: cell-based, mouse; conditions: splenocytes day 7 after MR766 or FSS13025; four peptides shared by both strains, NS31866-1874 MR766 only
Experimental: (§1) For intracellular cytokine staining (ICS), splenocytes were counted after red blood cell lysis and resuspended in 10% FBS/RPMI medium at 40×10^6 cells per ml. Splenocytes (2×10^6) were plated and stimulated with 1 μg of individual peptide as previously detailed (Elong Ngono et al., 2016). Positive (PMA-Ionomycin) and negative (No stimulation) controls were added for all experiments. Cells were labeled with anti-CD3 (Clone 145-2C11), anti-CD8 (clone 53-67), anti-CD44 (clone IM7), and anti-CD62L (clone Mel-14). Cells then were fixed and permeabilized, followed by staining with anti-granzyme B (clone NGZB), anti-IFNγ (clone XMG 1.2) and anti-TNFα(clone MP6-XT22). Samples were read on an LSR II (BD Biosciences) and were analyzed using FLOWJO™ software X 10.0.7 (Tree Star, Ashland, Oreg.).
The following results are with respect to FIG. 7A to FIG. 7E, where WT C57BL/6 mice treated with type I IFN receptor-blocking antibody on day 1 prior to infection were inoculated with 10^4 FFU of ZIKV strain MR766 (n=3) or FSS (n=3), or injected with 10% FBS/PBS (MOCK, n=2). […] The data are expressed as the mean of spot forming cells (SFC) per 10^6 CD8^+ T cells. […] Splenocytes were harvested on day 7 post-infection, followed by stimulation with 1 μg of IFNγ-ELISPOT-positive ZIKV-derived peptides in presence of Brefeldin A (BFA) and CD107a for 4 hours, and the production of IFNγ and TNFα was assessed via ICS. […]

CD8+ T cells [3] = test: ICS, LysMCre+IFNARfl/fl mice; format: cell-based, mouse; conditions: LysMCre+IFNARfl/fl mice infected with MR766 or FSS13025
Experimental: as §1
The following results are with reference to FIG. 3A and FIG. 3B, where five-week-old LysMCre^+IFNAR^fl/fl were infected retro-orbitally with 10^4 FFU of ZIKV MR766 or FSS13025. […] A total of 244 peptides from ZIKV strains predicted to bind H-2Kb and H-2db with high affinity were screened. Two independent experiments for each ZIKV strain (n=5 mice for each experiment) were performed in triplicate per peptide. The data are expressed as the mean of spot forming cells (SFC) per 10^6 CD8^+ T cells, and error bars are represented as SEM. […]

CD8+ T cells [4] = conditions: H-2b restricted; cited from earlier work

Sequence | in vivo cytotoxicity against peptide-pulsed splenocytes [1] | frequency of IFNγ-producing CD8+ T cells (ICS) (CD8+ T cells [2]) | immunodominance of epitopes (IFNγ+TNFα+ and CD107a+IFNγ+ ICS) (CD8+ T cells [3]) | cross-reactivity with CD8+ T cells induced in DENV2-infected mice (CD8+ T cells [4])
ATMSYECPM [SEQ ID NO 19] | high percentage of cytotoxicity |  |  | 
CAEAPNMKVI [SEQ ID NO 20] | high percentage of cytotoxicity |  |  | 
IGVSNRDFV [SEQ ID NO 21] |  | induced a high frequency of IFNγ-expressing cells | immunodominant epitopes | cross-reactive
PSVRNGNEI [SEQ ID NO 5] |  | induced a high frequency of IFNγ-expressing cells |  | cross-reactive
SNRDFVEGM [SEQ ID NO 25] | high percentage of cytotoxicity |  |  | 
